Here are results for 12 compounds from paper PMC11858294, “Design, Synthesis and Biological Activity Study of γ-Aminobutyric Acid (GABA) Derivatives Containing Bridged Bicyclic Skeletons as BCAT1 Inhibitors” (Molecules, 2025).

Structures are written as SMILES.

In one assay the test system is hBCAT1.
Assay: not given
Also noted: method as in PMID 39791161. To be noted: Figure 1; cited from earlier work.
For orientation: IC50 means the midpoint of a concentration-inhibition curve. As to `CC(=O)C(C)CCC(=O)O` (centres unmarked) [MOHA], the IC50 was 1 to 10 µM.
The term Ki denotes the equilibrium dissociation constant of an inhibitor or competing ligand from its target. Regarding `NCC1(CC(=O)O)CCCCC1` [gabapentin, reference compound], the Ki is 3500 µM.

The next assay relates to NCI-H1975 cells. The assay is described as follows: Cell proliferation assay (SRB), NCI-H1975 cells. The note with it: Homo sapiens, proliferation inhibition, 120 h, mean ± SD (n = 3). The format is cell-based. The source says: (§1) Subsequently, we evaluated the in vitro anti-proliferative activity of compounds 1, 2, 4 and 7 on the proliferation of both 67R and NCI-H1975 cells, using gabapentin as positive controls (Figure 3 and Table 2). These four compounds represented the potent BCAT1 inhibitors in the above enzymatic assay.
(§2) Cell culture and chemical reagents: Human NSCLC NCI-H1975 cells were purchased from American Type Culture Collection (ATCC, Manassas, VA, USA) and cultured in RPMI 1640 medium with 10% FBS in a cell incubator (37 °C, 5% CO2). ASK120067-resistant cells (67R) were constructed, cultured, and authenticated as described previously. Gabapentin (#T0702) was purchased from TargetMol (Boston, MA, USA).
(§3) A sulforodamine B (SRB) colorimetric assay was employed to detect the inhibitory effect of compounds on cell proliferation. Cells in the logarithmic growth phase were seeded into 96-well plates and cultured overnight. After incubation with the indicated compounds for 120 h, the culture medium was discarded. Then, 100 μL of 10% pre-cooled trichloroacetic acid (TCA) was added to each well to fix the cells at 4 °C for 1 h. The wells were then washed five times with distilled water. After drying, 100 μL of SRB dye (4 mg/mL SRB dissolved in 1% glacial acetic acid) was added to each well, and the cells were stained for 15 min at room temperature. After washing with 1% glacial acetic acid for five times, the plate was dried again. To dissolve the dye, 150 μL of 10 mM Tris solution was added to each well. The optical density (OD) was measured at 560 nm using a multi-well VersaMax spectrophotometer (Molecular Devices, Sunnyvale, CA, USA). The relative inhibition rate of the compounds on cell proliferation was calculated using the following formula: Inhibition rate (%) = [1 − (A560treated/A560control)] × 100%. The IC50 values were determined from the dose–response curves using the logit method.
For the compound `NC[C@@]1(CC(=O)O)C[C@H]2CC[C@@H]1C2` (relative stereo) [Compound 1, 2-((1R*,2R*,4S*)-2-(Aminomethyl)bicyclo[2.2.1]heptan-2-yl)acetic acid], the IC50 was 7820 ± 480 µM.
Regarding `NC[C@@]1(CC(=O)O)C[C@H]2CC=C[C@@H]1C2` (relative stereo) [7•p-TsOH, 2-((1S*,5S*,6R*)-6-(Aminomethyl)bicyclo[3.2.1]oct-3-en-6-yl)acetic acid], the IC50 came out at 7260 ± 730 µM.
`NCC1(CC(=O)O)CC2CCC1CC2` (stereo not drawn) [4•HBr, 2-((1R*,2S*,4R*)-2-(aminomethyl)bicyclo[2.2.2]octan-2-yl)acetic acid] gave an IC50 of 8080 ± 960 µM.
On the same count and under the same terms, for `NC[C@@]1(CC(=O)O)C[C@H]2C=C[C@@H]1C2` (relative stereo) [2•p-TsOH, 2-((1S*,2R*,4S*)-2-(Aminomethyl)bicyclo[2.2.1]hept-5-en-2-yl)acetic acid] the value was 8990 ± 670 µM; for `NCC1(CC(=O)O)CCCCC1` [gabapentin, reference compound], > 10000 µM.

Another assay deals with T1, BCAT1 enzyme (Homo sapiens, UniProt P54687).
T1 construct: purchased Sino Biological ME17NO0265
T1 sequence (P54687 1-386): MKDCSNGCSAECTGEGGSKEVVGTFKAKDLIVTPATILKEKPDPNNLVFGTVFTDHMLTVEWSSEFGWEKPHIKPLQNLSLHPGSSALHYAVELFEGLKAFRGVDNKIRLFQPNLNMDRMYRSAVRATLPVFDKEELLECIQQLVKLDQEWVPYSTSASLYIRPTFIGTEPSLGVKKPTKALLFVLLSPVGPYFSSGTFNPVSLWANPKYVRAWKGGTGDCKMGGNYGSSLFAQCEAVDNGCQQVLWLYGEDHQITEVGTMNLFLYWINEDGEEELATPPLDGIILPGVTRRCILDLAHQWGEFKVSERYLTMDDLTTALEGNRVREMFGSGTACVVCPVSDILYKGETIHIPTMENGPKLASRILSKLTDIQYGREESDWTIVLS
Nature of the assay: BCAT1 enzyme inhibition assay (LeuDH-coupled, NADH fluorescence). The format is biochemical.
Details: not given
How it is done:
The inhibitory activity of the synthesized compounds against BCAT1 enzyme was screened by a known method, where leucine dehydrogenase (LeuDH) was utilized to catalyze the nicotinamide adenine dinucleotide (NADH)-dependent reduction of the BCAA α-ketoisocaproate (α-KIC) to leucine and NADH consumption was measured through fluorescence and luminescence readouts to assess BCAT1 activity.
The compounds to be tested or PBS was added to a 384-well plate, followed by the addition of assay buffer (50 mM ammonium sulfate, 1 mM EDTA, 2 mM DTT, 0.01% BSA, 0.5 μM PLP, 50 mM HEPES buffer (pH 7.4)), 0.01 U LeuDH enzyme (#E0217, Nanjing Duly Biotechnology Co., Ltd., Nanjing, China) and 15 ng BCAT1 enzyme (#ME17NO0265, Sino Biological, Beijing, China). Subsequently, 40 μM α-KG, 100 μM Leucine and 10 μM NADH substrate mixture were added to initiate the reaction. Fluorescence changes in NADH were dynamically monitored using the Spark cyto (Tecan, Männedorf, Switzerland). The rate of NADH fluorescence decay was calculated to assess enzyme activity.
Consider `NC[C@@]1(CC(=O)O)C[C@H]2CC[C@@H]1C2` (relative stereo) [Compound 1, 2-((1R*,2R*,4S*)-2-(Aminomethyl)bicyclo[2.2.1]heptan-2-yl)acetic acid], for which the IC50 amounted to 2040 ± 590 µM.
Same read-out and setting: with `NC[C@]1(CC(=O)O)C[C@H]2CCC[C@@H]1C2` (relative stereo) [5•HBr, 2-((1S*,5R*,6S*)-6-(Aminomethyl)bicyclo[3.2.1]octan-6-yl)acetic acid] the figure was 4200 ± 1840 µM; with `NC[C@@]1(CC(=O)O)C[C@H]2CC=C[C@@H]1C2` (relative stereo) [7•p-TsOH, 2-((1S*,5S*,6R*)-6-(Aminomethyl)bicyclo[3.2.1]oct-3-en-6-yl)acetic acid], 780 ± 190 µM.
The same measure, in the same setting: for `NC[C@]1(CC(=O)O)C[C@H]2CCCC1CC2` (relative stereo) [8•HBr, 2-((1S*,6S*)-6-(Aminomethyl)bicyclo[3.2.2]nonan-6-yl)acetic acid] the value was 14500 ± 6390 µM; for `NC[C@@]1(CC(=O)O)C[C@H]2CCC[C@@H]1C2` (relative stereo) [Compound 6, 2-((1S*,5R*,6R*)-6-(Aminomethyl)bicyclo[3.2.1]octan-6-yl)acetic acid], 1540 ± 470 µM.
Compound `NCC1(CC(=O)O)CC2CCC1CC2` (stereo not drawn) [4•HBr, 2-((1R*,2S*,4R*)-2-(aminomethyl)bicyclo[2.2.2]octan-2-yl)acetic acid] had an IC50 of 1710 ± 1000 µM.
In turn, `NC[C@]1(CC(=O)O)C[C@H]2C=C[C@@H]1C2` (relative stereo) [3•p-TsOH, 2-((1S*,2S*,4S*)-2-(Aminomethyl)bicyclo[2.2.1]hept-5-en-2-yl)acetic acid] showed an IC50 of 3960 ± 2830 µM.
In turn, `NC[C@@]1(CC(=O)O)C[C@H]2C=C[C@@H]1C2` (relative stereo) [2•p-TsOH, 2-((1S*,2R*,4S*)-2-(Aminomethyl)bicyclo[2.2.1]hept-5-en-2-yl)acetic acid] showed an IC50 of 2040 ± 980 µM.
The compound `NC[C@]1(CC(=O)O)C[C@H]2CC[C@@H]1C2` [WQQ-345•HBr] yielded an IC50 of 4860 ± 1980 µM.
Same read-out and setting: with `NCC1(CC(=O)O)CCCCC1` [gabapentin, reference compound] the figure was 5070 ± 1060 µM.

The assay is the same for the next values; noted with them: ratio of IC50 values versus WQQ-345.
As to `NC[C@@]1(CC(=O)O)C[C@H]2CC=C[C@@H]1C2` (relative stereo) [7•p-TsOH, 2-((1S*,5S*,6R*)-6-(Aminomethyl)bicyclo[3.2.1]oct-3-en-6-yl)acetic acid], the “enhancement in BCAT1 enzymatic inhibitory activity compared to the parent compound WQQ-345” value stood at 6 fold.

The test system of the next assay is 67R cells. Nature of the assay: Cell proliferation assay (SRB), ASK120067-resistant 67R cells. It is filed as cell-based, Human. To be noted: Homo sapiens, 120 h, proliferation inhibition, mean ± SD (n = 3), cells with high BCAT1 expression.
Text: as §1, §2, §3
Regarding `NC[C@@]1(CC(=O)O)C[C@H]2CC[C@@H]1C2` (relative stereo) [Compound 1, 2-((1R*,2R*,4S*)-2-(Aminomethyl)bicyclo[2.2.1]heptan-2-yl)acetic acid], the IC50 came to 2600 ± 930 µM.
For `NC[C@@]1(CC(=O)O)C[C@H]2CC=C[C@@H]1C2` (relative stereo) [7•p-TsOH, 2-((1S*,5S*,6R*)-6-(Aminomethyl)bicyclo[3.2.1]oct-3-en-6-yl)acetic acid], the IC50 is < 2000 µM.
The same measure, in the same setting: with `NCC1(CC(=O)O)CC2CCC1CC2` (stereo not drawn) [4•HBr, 2-((1R*,2S*,4R*)-2-(aminomethyl)bicyclo[2.2.2]octan-2-yl)acetic acid] the figure was 1380 ± 370 µM; with `NC[C@@]1(CC(=O)O)C[C@H]2C=C[C@@H]1C2` (relative stereo) [2•p-TsOH, 2-((1S*,2R*,4S*)-2-(Aminomethyl)bicyclo[2.2.1]hept-5-en-2-yl)acetic acid], < 2000 µM; with `NCC1(CC(=O)O)CCCCC1` [gabapentin, reference compound], 3530 ± 220 µM.

The assay is the same for the next values; noted with them: proliferation inhibition, 120 h, mean ± SD (n = 3); cells with high BCAT1 expression.
`NC[C@@]1(CC(=O)O)C[C@H]2CC=C[C@@H]1C2` (relative stereo) [7•p-TsOH, 2-((1S*,5S*,6R*)-6-(Aminomethyl)bicyclo[3.2.1]oct-3-en-6-yl)acetic acid] displayed an IC50 of 1640 ± 490 µM.
Compound `NC[C@@]1(CC(=O)O)C[C@H]2C=C[C@@H]1C2` (relative stereo) [2•p-TsOH, 2-((1S*,2R*,4S*)-2-(Aminomethyl)bicyclo[2.2.1]hept-5-en-2-yl)acetic acid] gave an IC50 of 2710 ± 330 µM.

The subject of the next assay is BCAT1.
Assay: not given
Set-up: method as in PMID 39791161. To be noted: Figure 1; cited from earlier work.
`Cc1ccccc1Oc1cc(-n2c(=O)cc(C(F)(F)F)[nH]c2=O)c2ccccc2c1Cl` [BAY-069]: the IC50 was 0.031 µM.
